From patent US20150268247A1, “Assay for Screening of Anti-Viral Compounds That Inhibit Specific Interaction Interfaces Between Cullin5 and an ElonginB/ElonginC/ CBF-beta/HIV-1 Vif Complex” (UNIVERSITY OF ROCHESTER, priority 2012, published 2015)
Residues, ends and D or L forms follow the SMILES beside them. *: point of attachment. 5FAM = O=C1OC2(c3ccc(O)cc3Oc3cc(O)ccc32)c2ccc(C(=O)*)cc21; Ahx = NCCCCCC(=O)O

Molecular target: T1, Vif/EloB/C/CBFβ (UniProt P69723+Q15369)
T1 construct: Vif in the context of the Vif/EloB/C/CBFβ is full-length Vif (amino acids 1-192); co-expressing EloB1-118 and EloC17-112 from MCS1 and MCS2, respectively, from a pETDuet-1 vector (pEloBC); made in house; host or cells: E. coli BL21(DE3)
Experiment: Fluorescence anisotropy of 5-FAM Cul5 peptides with Vif/EloB/C/CBFβ
Format: binding, HIV-1 Vif; human EloB/C/CBFβ
Source text: The dissociation constant (KD) for each interaction is provided.

| SMILES | Kd [µM] |
| --- | --- |
| CC(C)C[C@H](NC(=O)CCCCCNC(=O)c1ccc2c(c1)C(=O)OC21c2ccc(O)cc2Oc2cc(O)ccc21)C(=O)N[C@@H](CCCNC(=N)N)C(=O)N[C@@H](CCC(N)=O)C(=O)N[C@@H](CCC(=O)O)C(=O)N[C@@H](CO)C(=O)N[C@H](C(=O)N[C@H](C(=O)N[C@@H](CCCCN)C(=O)N[C@@H](CCC(N)=O)C(=O)N[C@@H](CCC(N)=O)C(=O)N[C@@H](Cc1c[nH]c2ccccc12)C(=O)O)[C@@H](C)O)C(C)C [Cul5(30-40)] ({5FAM-Ahx}-LRQESVTKQQW-OH) | 16 |
| CC(C)C[C@H](NC(=O)[C@H](CS)NC(=O)[C@@H](NC(=O)[C@H](C)NC(=O)[C@H](Cc1c[nH]cn1)NC(=O)[C@@H](NC(=O)[C@H](CC(=O)O)NC(=O)[C@H](CO)NC(=O)[C@H](Cc1ccccc1)NC(=O)[C@H](CC(C)C)NC(=O)[C@H](CC(=O)O)NC(=O)[C@H](Cc1ccccc1)NC(=O)[C@H](Cc1c[nH]c2ccccc12)NC(=O)[C@H](CCC(N)=O)NC(=O)[C@H](CCC(N)=O)NC(=O)[C@H](CCCCN)NC(=O)CCCCCNC(=O)c1ccc2c(c1)C(=O)OC21c2ccc(O)cc2Oc2cc(O)ccc21)C(C)C)C(C)C)C(=O)N[C@@H](Cc1c[nH]c2ccccc12)C(=O)O [Cul5(37-53)] ({5FAM-Ahx}-KQQWFDLFSDVHAVCLW-OH) | 1.2 |
| CC(C)C[C@H](NC(=O)CCCCCNC(=O)c1ccc2c(c1)C(=O)OC21c2ccc(O)cc2Oc2cc(O)ccc21)C(=O)N[C@@H](Cc1ccccc1)C(=O)N[C@@H](CO)C(=O)N[C@@H](CC(=O)O)C(=O)N[C@H](C(=O)N[C@@H](Cc1c[nH]cn1)C(=O)N[C@@H](C)C(=O)N[C@H](C(=O)N[C@@H](CS)C(=O)N[C@@H](CC(C)C)C(=O)N[C@@H](Cc1c[nH]c2ccccc12)C(=O)N[C@@H](CC(=O)O)C(=O)O)C(C)C)C(C)C [Cul5(43-54)] | 2.5 |
| CC[C@H](C)[C@H](NC(=O)[C@H](CCCCN)NC(=O)[C@H](C)NC(=O)[C@@H]1CCCN1C(=O)CNC(=O)[C@H](CCCCN)NC(=O)[C@H](CC(=O)O)NC(=O)[C@H](CC(=O)O)NC(=O)[C@H](Cc1c[nH]c2ccccc12)NC(=O)[C@H](CC(C)C)NC(=O)[C@H](CS)NC(=O)[C@@H](NC(=O)[C@H](C)NC(=O)[C@H](Cc1c[nH]cn1)NC(=O)[C@@H](NC(=O)[C@H](CC(=O)O)NC(=O)[C@H](CO)NC(=O)[C@H](Cc1ccccc1)NC(=O)[C@H](CC(C)C)NC(=O)CCCCCNC(=O)c1ccc2c(c1)C(=O)OC21c2ccc(O)cc2Oc2cc(O)ccc21)C(C)C)C(C)C)C(=O)N[C@@H](Cc1c[nH]cn1)C(=O)N[C@@H](CCC(N)=O)C(=O)N[C@@H](C)C(=O)N[C@@H](CC(C)C)C(=O)O [Cul5(43-65)] | 4.7 |
